According to BindingDB's records for doi:10.1039/c4ob00214h (Lanzhou University, 2014):

Tests used:
[1] = molecular target: T1, Tyrosine-protein phosphatase non-receptor type 1 (Homo sapiens, UniProt P18031)
T1 sequence (P18031 whole entry): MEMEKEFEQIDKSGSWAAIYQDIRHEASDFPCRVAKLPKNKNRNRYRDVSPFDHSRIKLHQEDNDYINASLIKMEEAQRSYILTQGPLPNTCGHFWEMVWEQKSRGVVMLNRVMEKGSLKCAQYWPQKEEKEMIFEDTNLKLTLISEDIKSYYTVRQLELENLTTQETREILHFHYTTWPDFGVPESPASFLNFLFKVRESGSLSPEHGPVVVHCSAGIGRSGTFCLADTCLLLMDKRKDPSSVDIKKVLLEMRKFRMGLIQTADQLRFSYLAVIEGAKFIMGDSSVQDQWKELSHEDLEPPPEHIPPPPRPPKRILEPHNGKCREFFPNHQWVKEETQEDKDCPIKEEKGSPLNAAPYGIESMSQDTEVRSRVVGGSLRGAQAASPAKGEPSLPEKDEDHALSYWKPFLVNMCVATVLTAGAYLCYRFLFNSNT

[2] = molecular target: T2, Tyrosine-protein phosphatase non-receptor type 2 (Homo sapiens, UniProt P17706)
T2 sequence (P17706 whole entry): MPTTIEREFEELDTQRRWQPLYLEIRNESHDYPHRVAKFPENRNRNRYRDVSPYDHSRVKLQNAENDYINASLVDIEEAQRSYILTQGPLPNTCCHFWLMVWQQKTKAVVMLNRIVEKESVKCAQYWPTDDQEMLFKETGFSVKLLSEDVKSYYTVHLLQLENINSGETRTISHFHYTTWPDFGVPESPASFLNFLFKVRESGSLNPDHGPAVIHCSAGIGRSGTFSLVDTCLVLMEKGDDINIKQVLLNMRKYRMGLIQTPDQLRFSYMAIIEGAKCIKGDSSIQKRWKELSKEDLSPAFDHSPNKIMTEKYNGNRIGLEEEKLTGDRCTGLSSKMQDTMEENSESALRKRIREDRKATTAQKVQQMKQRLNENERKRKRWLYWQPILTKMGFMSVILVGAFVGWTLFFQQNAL

[3] = molecular target: T3, M-phase inducer phosphatase 2 (Homo sapiens, UniProt P30305)
T3 sequence (P30305 whole entry): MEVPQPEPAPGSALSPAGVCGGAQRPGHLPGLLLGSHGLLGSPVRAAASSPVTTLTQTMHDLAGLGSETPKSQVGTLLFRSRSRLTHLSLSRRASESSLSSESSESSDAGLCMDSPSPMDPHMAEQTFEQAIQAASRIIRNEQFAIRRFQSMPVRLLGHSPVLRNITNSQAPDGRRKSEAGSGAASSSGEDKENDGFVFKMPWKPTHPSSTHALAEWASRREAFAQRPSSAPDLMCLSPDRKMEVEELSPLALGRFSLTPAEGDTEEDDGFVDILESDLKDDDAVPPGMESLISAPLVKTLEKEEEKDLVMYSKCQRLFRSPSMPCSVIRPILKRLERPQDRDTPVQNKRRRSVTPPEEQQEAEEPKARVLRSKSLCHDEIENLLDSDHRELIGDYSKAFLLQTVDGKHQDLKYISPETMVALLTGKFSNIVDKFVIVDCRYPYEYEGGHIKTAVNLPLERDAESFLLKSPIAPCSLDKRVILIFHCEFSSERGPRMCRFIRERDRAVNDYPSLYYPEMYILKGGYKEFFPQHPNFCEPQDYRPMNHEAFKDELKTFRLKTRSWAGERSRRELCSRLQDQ

[4] = molecular target: Tyrosine-protein phosphatase non-receptor type 6 (Homo sapiens, UniProt P29350)
[5] = molecular target: T4, Tyrosine-protein phosphatase non-receptor type 11 (Homo sapiens, UniProt Q06124)
T4 sequence (Q06124 whole entry): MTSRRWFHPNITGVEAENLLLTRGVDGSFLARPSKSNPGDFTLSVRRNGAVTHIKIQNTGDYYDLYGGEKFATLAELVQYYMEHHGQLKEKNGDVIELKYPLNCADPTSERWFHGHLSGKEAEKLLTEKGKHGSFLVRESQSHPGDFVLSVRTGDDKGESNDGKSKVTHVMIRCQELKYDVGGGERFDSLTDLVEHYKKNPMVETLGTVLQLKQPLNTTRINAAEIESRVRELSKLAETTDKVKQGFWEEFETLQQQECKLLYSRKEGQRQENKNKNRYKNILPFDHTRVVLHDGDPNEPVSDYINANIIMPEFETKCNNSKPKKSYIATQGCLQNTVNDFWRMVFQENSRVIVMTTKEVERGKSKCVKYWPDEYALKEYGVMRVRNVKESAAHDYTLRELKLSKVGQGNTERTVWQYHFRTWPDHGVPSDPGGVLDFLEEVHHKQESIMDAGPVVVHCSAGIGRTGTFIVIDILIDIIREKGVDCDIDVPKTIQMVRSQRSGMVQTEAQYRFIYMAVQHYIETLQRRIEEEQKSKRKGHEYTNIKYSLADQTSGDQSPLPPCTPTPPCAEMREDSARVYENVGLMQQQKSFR

Sequence of Tyrosine-protein phosphatase non-receptor type 6 (P29350 whole entry): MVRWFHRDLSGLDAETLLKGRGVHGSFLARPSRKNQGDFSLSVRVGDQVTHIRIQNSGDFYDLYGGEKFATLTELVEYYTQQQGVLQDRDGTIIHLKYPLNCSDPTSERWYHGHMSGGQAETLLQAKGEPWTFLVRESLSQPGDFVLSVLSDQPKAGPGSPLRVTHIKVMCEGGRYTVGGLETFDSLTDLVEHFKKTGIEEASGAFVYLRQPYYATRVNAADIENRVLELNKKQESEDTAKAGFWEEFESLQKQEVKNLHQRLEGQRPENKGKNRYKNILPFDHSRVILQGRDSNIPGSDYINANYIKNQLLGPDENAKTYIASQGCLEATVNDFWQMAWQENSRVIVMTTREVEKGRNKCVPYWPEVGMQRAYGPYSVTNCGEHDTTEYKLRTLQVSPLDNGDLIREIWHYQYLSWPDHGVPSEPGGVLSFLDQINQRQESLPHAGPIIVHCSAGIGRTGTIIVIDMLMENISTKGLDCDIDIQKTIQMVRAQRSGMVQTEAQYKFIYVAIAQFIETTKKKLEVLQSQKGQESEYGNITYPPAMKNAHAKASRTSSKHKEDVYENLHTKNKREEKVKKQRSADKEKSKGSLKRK

Row | SMILES | IC50 [1] | IC50 [2] | IC50 [3] | IC50 [4] | IC50 [5]
1 | CCCCCCCCCCCCC/C=C/[C@@]12C(=O)O[C@@H](C)[C@@H]1[C@H]1C(=CC2CCCCCCCCCCCC)C(=O)O[C@H]1C (stereo partly drawn) [(1R,2S,3S,8R,9S,12S)-8-dodecyl-3,12-dimethyl-9-[(1E)-pentadec-1-en-1-yl]-4,11-dioxatricyclo[7.3.0.0,⁶]dodec-6-ene-5,10-dione (7)] | 4.27 µM | 31.8 µM | 3.93 µM | – | –
2 | CCCCCCCCCCCC/C=C/[C@@]12C(=O)O[C@@H](C)[C@@H]1[C@H]1C(=C[C@H]2CCCCCCCCCCCC)C(=O)O[C@H]1C [(1R,2S,3S,8R,9S,12S)-8-dodecyl-3,12-dimethyl-9-[(1E)-tetradec-1-en-1-yl]-4,11-dioxatricyclo[7.3.0.0,⁶]dodec-6-ene-5,10-dione (6)] | 3.25 µM | 13.2 µM | 2.34 µM | – | –
3 | CCCCCCCCCCCC[C@@H]1C=C2C(=O)O[C@@]3(C)O[C@@]4(C)OC(=O)[C@]1(CO)[C@H]4[C@@H]23 [(1R,6R,7S,10S,11R,12S)-6-dodecyl-7-(hydroxymethyl)-1,10-dimethyl-2,9,13-trioxatetracyclo[8.2.1.0⁴,.0⁷,]tridec-4-ene-3,8-dione (15)] | 20.4 µM | 19.8 µM | 17 µM | – | –
4 | CCCCCCCCCCCC[C@@H]1C=C2C(=O)O[C@@]3(C)O[C@@]4(C)OC(=O)[C@]1(C=O)[C@H]4[C@@H]23 [(1S,4S,5R,10R,11S,12R)-5-dodecyl-1,10-dimethyl-3,8-dioxo-2,9,13-trioxatetracyclo[8.2.1.0⁴,.0⁷,]tridec-6-ene-4-carbaldehyde (14)] | 6 µM | 9.38 µM | 8.33 µM | – | –
5 | CCCCCCCCCCCCC/C=C/[C@@]12C(=O)O[C@@H](C)[C@@H]1[C@H](C(C)=O)C(C(=O)O)=C[C@H]2CCCCCCCCCCCC [(3S,3aR,4S,7R,7aS)-4-acetyl-7-dodecyl-3-methyl-1-oxo-7a-[(1E)-pentadec-1-en-1-yl]-1,3,3a,4,7,7a-hexahydro-2-benzofuran-5-carboxylic acid (9)] | 0.27 µM | 2.55 µM | 0.22 µM | 3.86 µM | 3.13 µM
6 | CCCCCCCCCCCCC/C=C/[C@@]12C(=O)O[C@@H](C)[C@@H]1[C@H](C(C)=O)C(C(=O)O)=CC2CCCCCCCCCCCC (stereo partly drawn) [(3S,3aR,4S,7aS)-4-acetyl-7-dodecyl-3-methyl-1-oxo-7a-[(1E)-pentadec-1-en-1-yl]-1,3,3a,4,7,7a-hexahydro-2-benzofuran-5-carboxylic acid (10)] | 0.27 µM | 4.73 µM | 0.2 µM | 4.41 µM | 1.71 µM
7 | CCCCCCCCCCCC/C=C/[C@]12C(=O)O[C@]3(C)O[C@]4(C)OC(=O)C(=C[C@H]1CCCCCCCCCCCC)[C@@H]4[C@@H]32 [Paracaseolide A (13)] | 1.5 µM | 6.01 µM | 2.34 µM | – | –
